Reference: ChEMBL document CHEMBL1149593, “Mechanism of the melanogenesis stimulation activity of (-)-cubebin in murine B16 melanoma cells” (2007)
Activity calls are given as the source filed them. No cut-off for these calls is given here.

Legend:
[1] = tested on: B16; experiment: Melanogenesis stimulation activity in mouse B16 cells at 2 to 10 uM; format: functional, cell-based
[2] = tested on: B16; experiment: Increase in melanin level in mouse B16 cells at 10 uM after 48 to 96 hrs; format: functional, cell-based
[3] = tested on: B16; experiment: Increase in tyrosinase activity in mouse B16 cells at 10 uM after 24 to 96 hrs; format: functional, cell-based
[4] = tested on: B16; experiment: Increase in tyrosinase expression in mouse B16 cells at 10 uM after 48 hrs; format: functional
[5] = tested on: B16; experiment: Increase in tyrosinase mRNA expression in mouse B16 cells at 10 uM after 12 hrs; format: functional
[6] = molecular target: MAP kinase p38 (Mus musculus) (UniProt P47811+O08911+Q9WUI1+Q9Z1B7); experiment: Increase in p38 MAPK phosphorylation in mouse B16 cells at 4 to 8 hrs; format: cell-based
[7] = tested on: B16; experiment: Induction of tyrosinase mRNA expression in mouse B16 cells in presence of SB-203580; format: functional, cell-based

For `O[C@H]1OC[C@H](Cc2ccc3c(c2)OCO3)[C@H]1Cc1ccc2c(c1)OCO2`, the Activity [1] was “Active”, the Activity [2] was “Active” and the Activity [3] was “Active”. For the same compound, the Fold change [4] was 6.2, the Fold change [5] was 1.8 and the Activity [6] was “Active”. For the same compound, the Activity [7] was “inactive”.
